Data on one molecule can be found in US20260256790A1, “DEBIO-0123 IN COMBINATION WITH TEMOZOLOMIDE AND RADIOTHERAPY FOR USE IN TREATING GLIOMA” (Debiopharm International S.A., priority 2023, published 2026).

Read-outs that look alike come from different tables or passages of the source.

In data set [1] the test system is SF188 cells. As to the kind of experiment: ATP-based cell viability assay (CellTiter-Glo 2.0) in control and ATRX-deficient SF188 cells. On the procedure:
(§1) SF188 cells were transfected with ATRX siRNA (siATRX_1 or siATRX_2) either individually (A) or as a pool (B and C) or control siRNA (siCon) and ATRX deficiency assessed by determining relative ATRX protein levels by western blotting. Control and ATRX-deficient SF188 cells were then treated with compound of formula (I) at a range of concentrations between 0 and 1.5 uM (FIG. 7A) and at 400 nM (FIG. 7B) and drug sensitivities were assessed via an ATP-based cell viability assay or in colony formation assay.
(§2) For cell viability assessment, SF188 cells were seeded in 96-well culture plates at 100-500 cells in 100 μl of culture media per well. After overnight incubation, 100 μl of culture media containing compound of formula (I) was added to each well at the desired final concentration. After 72 h, cell viability was assessed by CellTiter-Glo 2.0 according to the manufacturer's instructions. Each condition was tested in triplicate or quadruplicate, and the average viability is presented as a percentage of vehicle-treated cells. For colony formation assessment (FIG. 7C), SF188 cells were seeded on a 6-well plate at 100 cells per well in 1 ml of culture media. After overnight incubation, 1 ml of culture media containing compound of formula (I) was added to each well at the desired final concentrations up to 400 nM. At 10 days post-treatment, cell colonies were fixed with 70% ethanol for 30 min, washed with distilled water, and stained with Coomassie Blue. The number of colonies in each well was counted manually. Each colony consisted of >50 cells (corresponds to six doublings from a single cell). Colony-forming efficiency was determined by normalizing the colony numbers to the vehicle-treated cells.

Data set [2] can be described thus: CSF and matching plasma concentrations in glioma patients (clinical trial Arms A and B). The class given is in vivo, human. On the procedure: In the clinical trial described in Example 9, cerebrospinal fluid (CSF) stabilized with formic acid 0.5% and matching plasma samples collected on K2 EDTA were drawn from 3 patients of Arm A on day 11 of cycle 1 (i.e. 2 patients at 150 mg and 1 patient at 200 mg of Study drug) and 1 patient of Arm B on Week 3 day 1 (i.e. Day 15 after daily doses of Study drug at 90 mg).
Study drug (parent, active moiety) and its active metabolite N^32-desmethyl-Study drug were measured using LC-MS/MS methods. Results were provided in ng per mL of plasma or CSF, and then converted to nmol/L using the molecular weights of the Study drug (511.45 g/mol) and N^32-desmethyl-Study drug (497.42 g/mol).
Thus, the unbound (or free fraction) of the Study Drug and the N^32-desmethyl-Study drug are calculated.
In CSF, the total protein concentration varies between 0.2% and 0.5% of the total protein concentration of blood (H. Reiber, Clinica Chimica Acta, 2001; Schilde L M et al., PLoS ONE, 2018), therefore the concentration measured in CSF essentially corresponds to the free fraction of the compounds.
For each of the 4 patients, the ratio CSF/plasma of a given compound (Study drug parent or metabolite) was calculated using the CSF concentration of said compound (in nmol/L) and the unbound or free fraction of said compound in plasma (in nmol/L).

The test system of data set [3] is SF188 cells. The data set can be described thus: Colony formation assay in SF188 cells. It is filed as cell-based. To be noted: up to 400 nM, 10 days post-treatment. The procedure:
as §1
as §2, with “After overnight incubation, 1 ml of culture media containing compound of formula (I) was added to each well at the desired final concentrations up to 400 nM. At 10 days post-treatment, cell colonies were fixed with 70% ethanol for 30 min, washed with distilled water, and stained with Coomassie Blue.” left out, “Each colony consisted of >50 cells (corresponds to six doublings from a single cell).” left out

As to `Cc1cc(Nc2ncc3c(n2)N(C)CN(c2c(Cl)cccc2Cl)C3=O)ccc1C1CCN(C)CC1` [Compound of formula (I)], the “Viability of SF188 cells” value in the data set with SF188 cells [1] (0 to 1.5 uM, 72 h, CellTiter-Glo 2.0) is “significantly reduced the viability of SF188 cells”. In the data set with SF188 cells [1] (400 nM, p<0.01), the “Cell viability of ATRX-deficient SF188 cells” value is listed as “significantly reduced”. Moreover, the “IC50 in SF188 cells with ATRX siRNA relative to control siRNA” value in the data set on SF188 cells [1] (cell viability, 72 h) is given as “less than half of control siRNA”. The “CSF to “unbound plasma” ratio” value in data set [2] (Arm A, 150 mg, day 11 of cycle 1, listed as Study drug) is recorded as 0.33. In data set [2] (human, CSF / unbound plasma, 90 mg, Arm B, 90 mg daily, Week 3 day 1 (Day 15), read-out: CSF to “unbound plasma” ratio), the Kp at 15 day was determined as 0.42. The Kp at 11 day in data set [2] (human, CSF / unbound plasma, 150 mg, Arm A, 150 mg, day 11 of cycle 1, read-out: CSF to “unbound plasma” ratio) is 0.35; in data set [2] (human, CSF / unbound plasma, 200 mg, Arm A, 200 mg, day 11 of cycle 1, read-out: CSF to “unbound plasma” ratio), 0.38. Also, the concentration at 15 day in data set [2] (human, CSF, 90 mg, Arm B, 90 mg daily, Week 3 day 1 (Day 15), read-out: CSF concentration) is 21.3 nM; in data set [2] (human, CSF, 90 mg, Arm B, 90 mg daily, Week 3 day 1 (Day 15), read-out: Raw data concentration in CSF) it was 10.9 ng/mL; in data set [2] (human, plasma (unbound), 90 mg, Arm B, 90 mg daily, Week 3 day 1 (Day 15), read-out: Unbound plasma concentration) it was 50.3 nM; in data set [2] (human, plasma, 90 mg, Arm B, 90 mg daily, Week 3 day 1 (Day 15), read-out: Raw data concentration in plasma) it was 309 ng/mL. The concentration at 11 day came out at 19.8 nM in data set [2] (human, CSF, 200 mg, Arm A, 200 mg, day 11 of cycle 1, read-out: CSF concentration); 10.1 ng/mL in data set [2] (human, CSF, 200 mg, Arm A, 200 mg, day 11 of cycle 1, read-out: Raw data concentration in CSF); 52.4 nM in data set [2] (human, plasma (unbound), 200 mg, Arm A, 200 mg, day 11 of cycle 1, read-out: Unbound plasma concentration); 322 ng/mL in data set [2] (human, plasma, 200 mg, Arm A, 200 mg, day 11 of cycle 1, read-out: Raw data concentration in plasma). For the same molecule, the Kp in data set [2] (human, CSF/unbound plasma, 4 patients, Arms A and B, read-out: CSF/plasma ratio) lay within 0.33 to 0.42. Besides, in the data set on SF188 cells [3], the “Surviving fraction of cells, colony formation assay” value is “significantly reduced the surviving fraction of cells”.
